Reference: ChEMBL document CHEMBL1201862, “PubChem BioAssay data set” (2004)
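Briefly, cells in 96-well plates were exposed to five compound concentrations for 48 h, and endpoints were estimated by linear interpolation. GI50 = concentration required for 50% inhibition of growth.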 Calls of active or inactive are those of the source. Cut-off read from the data, not from the text of the source: active = GI50 up to about 1.1 µM and inactive = higher.

How the values were obtained:
Test in all cases: NCI anticancer screen, dose series, 48 h
SF-295 = test system: SF-295
HCC 2998 = test system: HCC 2998
LOX IMVI = test system: LOX IMVI
SN12C = test system: SN12C
HCT-116 = test system: HCT-116
NCI-H23 = test system: NCI-H23
A549 = test system: A549
NCI-H460 = test system: NCI-H460
RXF 393 = test system: RXF 393
OVCAR-8 = test system: OVCAR-8
OVCAR-5 = test system: OVCAR-5
MOLT-4 = test system: MOLT-4
SF-268 = test system: SF-268
SNB-75 = test system: SNB-75
SK-MEL-2 = test system: SK-MEL-2
UO-31 = test system: UO-31
UACC-257 = test system: UACC-257
HOP-62 = test system: HOP-62
SW-620 = test system: SW-620
IGROV-1 = test system: IGROV-1

Row | SMILES | GI50 (SF-295) | GI50 (HCC 2998) | GI50 (LOX IMVI) | GI50 (SN12C) | GI50 (HCT-116) | GI50 (NCI-H23) | GI50 (A549) | GI50 (NCI-H460) | GI50 (RXF 393) | GI50 (OVCAR-8) | GI50 (OVCAR-5) | GI50 (MOLT-4) | GI50 (SF-268) | GI50 (SNB-75) | GI50 (SK-MEL-2) | GI50 (UO-31) | GI50 (UACC-257) | GI50 (HOP-62) | GI50 (SW-620) | GI50 (IGROV-1)
1 | CC1CC[P+](c2ccccc2)(c2ccccc2)c2c1ccc1ccccc21 (stereo unspecified) | 3.5 µM (inactive) | 9.48 µM (inactive) | 2.33 µM (inactive) | 2.49 µM (inactive) | 1.96 µM (inactive) | 1.57 µM (inactive) | 4.83 µM (inactive) | 2 µM (inactive) | 9.08 µM (inactive) | 1.84 µM (inactive) | 5.26 µM (inactive) | 5.66 µM (inactive) | 4.35 µM (inactive) | 2.37 µM (inactive) | 1.63 µM (inactive) | 15.9 µM (inactive) | 0.385 µM (active) | – | – | –
2 | COc1cc(/C=C2\CCC(C)/C(=C\c3cc(OC)c(OC)c(OC)c3)C2=O)cc(OC)c1OC (stereo unspecified) | – | – | 3.27 µM (inactive) | 3.56 µM (inactive) | 3.32 µM (inactive) | – | 2.79 µM (inactive) | – | 2.55 µM (inactive) | 2.4 µM (inactive) | 3.38 µM (inactive) | – | 3.37 µM (inactive) | 18.2 µM (inactive) | 1.67 µM (inactive) | 3.99 µM (inactive) | 3.78 µM (inactive) | 3.63 µM (inactive) | 3.8 µM (inactive) | 2.38 µM (inactive)
3 | N=S(=O)(c1ccccc1)c1ccccc1[N+](=O)[O-] (stereo unspecified) | > 100 µM (inactive) | > 100 µM (inactive) | – | > 100 µM (inactive) | > 100 µM (inactive) | > 100 µM (inactive) | > 100 µM (inactive) | > 100 µM (inactive) | > 100 µM (inactive) | > 100 µM (inactive) | > 100 µM (inactive) | > 100 µM (inactive) | – | > 100 µM (inactive) | 68.5 µM (inactive) | > 100 µM (inactive) | > 100 µM (inactive) | > 100 µM (inactive) | > 100 µM (inactive) | > 100 µM (inactive)
4 | C1CSCCSCSCCS1 | > 100 µM (inactive) | > 100 µM (inactive) | > 100 µM (inactive) | > 100 µM (inactive) | > 100 µM (inactive) | > 100 µM (inactive) | > 100 µM (inactive) | > 100 µM (inactive) | > 100 µM (inactive) | > 100 µM (inactive) | > 100 µM (inactive) | – | > 100 µM (inactive) | 48.3 µM (inactive) | > 100 µM (inactive) | > 100 µM (inactive) | > 100 µM (inactive) | > 100 µM (inactive) | > 100 µM (inactive) | > 100 µM (inactive)
5 | Cn1c(=O)c(-c2ccccc2)c(N=[N+]=[N-])c2ccccc21 | 47.9 µM (inactive) | 22.4 µM (inactive) | – | 95.9 µM (inactive) | 69.5 µM (inactive) | 38.7 µM (inactive) | 67.8 µM (inactive) | 39.4 µM (inactive) | 80.2 µM (inactive) | 49.3 µM (inactive) | > 100 µM (inactive) | 20.9 µM (inactive) | 39.5 µM (inactive) | 4.46 µM (inactive) | – | 46.8 µM (inactive) | > 100 µM (inactive) | 45 µM (inactive) | 48.3 µM (inactive) | > 100 µM (inactive)
6 | CCCCNC(=O)N/C=C1\C(=O)Oc2ccccc2C1=O | – | > 100 µM (inactive) | 70.1 µM (inactive) | 29.5 µM (inactive) | 43.9 µM (inactive) | 54.6 µM (inactive) | 80.9 µM (inactive) | > 100 µM (inactive) | 15 µM (inactive) | 74.1 µM (inactive) | 68.5 µM (inactive) | 35.3 µM (inactive) | 34.4 µM (inactive) | – | 20.1 µM (inactive) | 11.8 µM (inactive) | 55.7 µM (inactive) | 47.5 µM (inactive) | 58.7 µM (inactive) | 37.1 µM (inactive)
7 | c1cncc(O[Si](Oc2cccnc2)(Oc2cccnc2)Oc2cccnc2)c1 | > 100 µM (inactive) | > 100 µM (inactive) | > 100 µM (inactive) | > 100 µM (inactive) | – | > 100 µM (inactive) | > 100 µM (inactive) | > 100 µM (inactive) | > 100 µM (inactive) | > 100 µM (inactive) | > 100 µM (inactive) | > 100 µM (inactive) | – | > 100 µM (inactive) | > 100 µM (inactive) | > 100 µM (inactive) | > 100 µM (inactive) | – | > 100 µM (inactive) | > 100 µM (inactive)
8 | C=CCOC(=O)Cn1ccc(=O)[nH]c1=O | > 100 µM (inactive) | > 100 µM (inactive) | > 100 µM (inactive) | > 100 µM (inactive) | > 100 µM (inactive) | > 100 µM (inactive) | > 100 µM (inactive) | > 100 µM (inactive) | – | > 100 µM (inactive) | > 100 µM (inactive) | > 100 µM (inactive) | > 100 µM (inactive) | > 100 µM (inactive) | > 100 µM (inactive) | > 100 µM (inactive) | > 100 µM (inactive) | > 100 µM (inactive) | > 100 µM (inactive) | > 100 µM (inactive)
9 | C#Cc1cccc(N2C(=O)c3c(c(-c4ccccc4)c(-c4ccc(Cc5ccc(-c6c(-c7ccccc7)c7c(c(-c8ccccc8)c6-c6ccccc6)C(=O)N(c6cccc(C#C)c6)C7=O)cc5)cc4)c(-c4ccccc4)c3-c3ccccc3)C2=O)c1 | 37.8 µM (inactive) | 44.7 µM (inactive) | – | 20.7 µM (inactive) | 21 µM (inactive) | 31.2 µM (inactive) | 24.4 µM (inactive) | 43.2 µM (inactive) | 15.9 µM (inactive) | 31.5 µM (inactive) | > 100 µM (inactive) | 14.3 µM (inactive) | 15 µM (inactive) | 16.3 µM (inactive) | 57.9 µM (inactive) | 36.7 µM (inactive) | 47.3 µM (inactive) | 25.8 µM (inactive) | 33 µM (inactive) | 12.6 µM (inactive)
10 | COc1ccc(C(=O)CC(c2ccccc2)[C@H]2C(c3ccc(OC)cc3)=Nc3c(nc(SC)n(C)c3=O)NC2c2ccccc2)cc1 (stereo partly specified) | > 100 µM (inactive) | > 100 µM (inactive) | > 100 µM (inactive) | > 100 µM (inactive) | 89.7 µM (inactive) | > 100 µM (inactive) | > 100 µM (inactive) | > 100 µM (inactive) | > 100 µM (inactive) | – | > 100 µM (inactive) | > 100 µM (inactive) | > 100 µM (inactive) | – | > 100 µM (inactive) | – | > 100 µM (inactive) | > 100 µM (inactive) | > 100 µM (inactive) | > 100 µM (inactive)
11 | CCC(/C=C/c1ccccc1)=N\N=C(\C=C\c1ccccc1)CC | > 100 µM (inactive) | > 100 µM (inactive) | > 100 µM (inactive) | > 100 µM (inactive) | > 100 µM (inactive) | > 100 µM (inactive) | > 100 µM (inactive) | > 100 µM (inactive) | – | > 100 µM (inactive) | > 100 µM (inactive) | > 100 µM (inactive) | > 100 µM (inactive) | > 100 µM (inactive) | > 100 µM (inactive) | > 100 µM (inactive) | > 100 µM (inactive) | > 100 µM (inactive) | > 100 µM (inactive) | > 100 µM (inactive)
